The values below are quoted from earlier work in patent US5700484A, “Sustained release microparticulate caffeine formulation” (Nestec S.A., priority 1996, dated 1997).

The conditions of this data set: 350 mg caffeine oral, aqueous solution.

In the case of `Cn1c(=O)c2c(ncn2C)n(C)c1=O` [caffeine, 1,3,7-trimethyl xanthine], the maximum plasma level result is “approximately 8.3 μg/ml”.
